In ChEMBL document CHEMBL3352203, “Bioactive sulfur-containing sulochrin dimers and other metabolites from an Alternaria sp. isolate from a Hawaiian soil sample” (J Nat Prod, 2014):
Values after ≈ are worked out from the molar mass of the structure shown.

How the values were obtained:
Staphylococcus aureus = assay: Antibacterial activity against Staphylococcus aureus ATCC 700787 after 17 hrs; type: functional; settings: ATCC 700787, 17 h
[1] = Cytotoxicity against human MIAPaCa2 cells assessed as after 48 hrs by MTT assay; type: functional, cell-based; settings: MIA PaCa-2, 48 h

MIC (Staphylococcus aureus) | Compound | IC50 [1]
5 µM (≈ 1.62 µg/mL) | O=C(N[C@H](CO)[C@H](O)c1ccc([N+](=O)[O-])cc1)C(Cl)Cl [CHLORAMPHENICOL] | 
3.2 µM (≈ 2.02 µg/mL) | COC(=O)c1c(Sc2c(O)cc3oc4cc(C)cc(O)c4c(=O)c3c2C(=O)OC)c(O)cc2oc3cc(C)cc(O)c3c(=O)c12 | 29.3 µM
4.9 µM (≈ 3.25 µg/mL) | COC(=O)c1c(Sc2c(O)cc3oc4cc(C)cc(O)c4c(=O)c3c2C(=O)OC)c(O)cc(OC)c1C(=O)c1c(O)cc(C)cc1O | 30.3 µM
4.1 µM (≈ 2.85 µg/mL) | COC(=O)c1c(Sc2c(O)cc(OC)c(C(=O)c3c(O)cc(C)cc3O)c2C(=O)OC)c(O)cc(OC)c1C(=O)c1c(O)cc(C)cc1O | 50.8 µM
